Experimental data reported in ChEMBL document CHEMBL1138095, “From ligand to complexes: inhibition of human immunodeficiency virus type 1 integrase by beta-diketo acid metal complexes” (J Med Chem, 2006).
pIC50: −log10 of the molar value.

Tests used:
[1] = molecular target: T1, Human immunodeficiency virus type 1 integrase (Human immunodeficiency virus 1, UniProt Q7ZJM1); experiment: Inhibition of HIV1 integrase 3' processing activity
[2] = molecular target: T1, Human immunodeficiency virus type 1 integrase; experiment: Inhibition of HIV1 integrase strand transfer activity

T1 sequence (Q7ZJM1 whole entry): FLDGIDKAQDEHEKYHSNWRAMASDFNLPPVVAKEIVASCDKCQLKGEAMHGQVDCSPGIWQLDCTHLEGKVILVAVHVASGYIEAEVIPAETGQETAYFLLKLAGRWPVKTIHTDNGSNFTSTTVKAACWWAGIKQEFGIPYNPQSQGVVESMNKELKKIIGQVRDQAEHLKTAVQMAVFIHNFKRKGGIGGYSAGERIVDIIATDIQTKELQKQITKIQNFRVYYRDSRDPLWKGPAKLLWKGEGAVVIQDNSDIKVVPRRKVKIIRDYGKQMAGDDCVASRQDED

pIC50 [1]	pIC50 [2]	Compound
< 3.48	< 3.48	COC(=O)C(=O)/C=C(\O)c1ccccc1
3.73	4.32	COC(=O)C(=O)/C=C(\O)c1cccn1Cc1ccc(F)cc1
